Reference: patent US4016166A, “1-Nitrophenylquinazoline-2,4(1H,3H)-diones” (Hisamitsu Pharmaceutical Co., Inc., priority 1973, dated 1977)
Like-named read-outs stand apart in the source and are kept apart here.

Legend:
[1] = test system: carrageenin edema; experiment: Anti-inflammatory effect (carrageenin edema, hind paw, rat); type: in vivo, Wistar-strain male rats; details: oral, 3 hours after carrageenin, read-out: anti-inflammatory effect (inhibition percentage of carrageenin edema)
Procedure: A group of five Wistar-strain male rats (100-150 g) were orally administered with each test compound suspended in 0.5 % tragacanth-saline solution. After 30 minutes 0.5 %-1.0 % carrageenin suspended in the water for injection was injected subcutaneously to a hind paw. After 3 hours the carrageenin edema was measured by volume and the inhibition percentage was determined with respect to the results for the control animals. The inhibition percentages were shown with the notations as follows: […]

[2] = test system: acetic acid writhing syndrome; experiment: Analgetic effect (acetic acid writhing, mouse); type: in vivo, dd-strain male mice; details: oral, read-out: analgetic effect ED50 (95% C.L.)
Text: Each test compound suspended in 0.5 % tragacanth-saline solution was orally administered to dd-strain male mice (18-20 g). After one hour 0.6 % acetic acid solution was intraperitoneally injected in a volume of […].

[3] = test system: righting reflex; experiment: Central nervous system depressive effect (disappearance of righting reflex, mouse); type: in vivo, dd-strain male mice; details: ip, read-out: CNS depressive effect (dose required for disappearance of righting reflex)
Procedure: Each test compound suspended in 0.5 % tragacanth-saline solution was injected intraperitoneally to dd-strain male mice (16-24 g). The disappearance of righting reflex was observed under noiseless circumstances. The dose required for the dissappearance of righting reflex is indicated with the following notations: […]

[4] = test system: dd-strain male mice; type: in vivo; details: mouse, 72 hours
Procedure: The lethal dose was estimated from the death of animals 72 hours after administration.

| SMILES | inhibition in vivo at 10 mg/kg [1] | inhibition in vivo at 50 mg/kg [1] | ED50 [2] | minimal effective dose ([3]; mouse) | acute toxicity (lethal dose) ([4]; i.p.) | acute toxicity (lethal dose) ([4]; p.o.) | minimal effective dose ([3]; Mus musculus) |
| --- | --- | --- | --- | --- | --- | --- | --- |
| CC(C)n1c(=O)c2ccccc2n(-c2cccc([N+](=O)[O-])c2)c1=O | 16 to 30% | 46 to 60% | 2.9 mg/kg | 30 to 100 mg/kg | > 1000 mg/kg | > 2000 mg/kg | – |
| O=c1c2ccccc2n(-c2cccc([N+](=O)[O-])c2)c(=O)n1CC1CC1 | 31 to 45% | 46 to 60% | – | 100 to 300 mg/kg | 1000 mg/kg | – | – |
| C#CCn1c(=O)c2ccccc2n(-c2cccc([N+](=O)[O-])c2)c1=O | < 15% | 31 to 45% | 40 mg/kg | > 1000 mg/kg | > 1000 mg/kg | > 2000 mg/kg | – |
| Cn1c(=O)c2ccccc2n(-c2cccc([N+](=O)[O-])c2)c1=O [Compound 2, 1-(m-nitrophenyl)-3-methylquinazoline-2,4(1H, 3H)-dione] | 31 to 45% | 46 to 60% | 12.5 mg/kg | 100 to 300 mg/kg | > 1000 mg/kg | > 2000 mg/kg | – |
| CCn1c(=O)c2ccccc2n(-c2cccc([N+](=O)[O-])c2)c1=O [Compound 3, 1-(m-nitrophenyl)-3-ethylquinazoline-2,4(1H, 3H)-dione] | > 61% | > 61% | 6 mg/kg | 30 to 100 mg/kg | > 1000 mg/kg | > 2000 mg/kg | – |
| CCCn1c(=O)c2ccccc2n(-c2cccc([N+](=O)[O-])c2)c1=O [Compound 4, 1-(m-nitrophenyl)-3-propylquinazoline-2,4(1H,3H)-dione] | < 15% | 16 to 30% | 51 mg/kg | > 1000 mg/kg | 1000 mg/kg | > 2000 mg/kg | – |
| C=CCn1c(=O)c2ccccc2n(-c2cccc([N+](=O)[O-])c2)c1=O [Compound 6, 1-(m-nitrophenyl)-3-allylquinazoline-2,4(1H, 3H)-dione] | 16 to 30% | 31 to 45% | > 100 mg/kg | > 1000 mg/kg | > 1000 mg/kg | 2000 mg/kg | – |
| O=c1c2ccccc2n(-c2cccc([N+](=O)[O-])c2)c(=O)n1CCF [Compound 10] | > 61% | 46 to 60% | 1.48 mg/kg | 30 to 100 mg/kg | > 1000 mg/kg | > 2000 mg/kg | – |
| O=c1c2ccccc2n(-c2cccc([N+](=O)[O-])c2)c(=O)n1CCCl [Compound 11] | – | 16 to 30% | 5.5 mg/kg | 100 to 300 mg/kg | > 1000 mg/kg | > 2000 mg/kg | – |
| O=c1c2ccccc2n(-c2cccc([N+](=O)[O-])c2)c(=O)n1CC(F)(F)F [Compound 12, 1-(m-nitrophenyl)-3-(2,2,2-trifluoroethyl) quinazoline-2,4(1H, 3H)-dione] | 16 to 30% | 31 to 45% | 44 mg/kg | > 1000 mg/kg | > 1000 mg/kg | > 2000 mg/kg | – |
| O=c1c2ccccc2n(-c2cccc([N+](=O)[O-])c2)c(=O)n1CCO [Compound 13] | – | 31 to 45% | 2.25 mg/kg | 10 to 30 mg/kg | – | 2000 mg/kg | – |
| CCOCCn1c(=O)c2ccccc2n(-c2cccc([N+](=O)[O-])c2)c1=O [Compound 16, 1-(m-nitrophenyl)-3-(2-ethoxyethyl)quinazoline-2,4(1H, 3H)-dione] | – | 16 to 30% | 2.15 mg/kg | 30 to 100 mg/kg | > 1000 mg/kg | > 2000 mg/kg | – |
| O=c1c2ccccc2n(-c2cccc([N+](=O)[O-])c2)c(=O)n1CCOCCO [Compound 17] | – | 16 to 30% | 3.7 mg/kg | 30 to 100 mg/kg | 1000 mg/kg | 2000 mg/kg | – |
| CC(=O)OCCn1c(=O)c2ccccc2n(-c2cccc([N+](=O)[O-])c2)c1=O [Compound 18] | – | 16 to 30% | 1.7 mg/kg | 10 to 30 mg/kg | > 1000 mg/kg | 2000 mg/kg | – |
| Cn1c(=O)c2ccccc2n(-c2cccc([N+](=O)[O-])c2)c1=S [Compound 23] | < 15% | 16 to 30% | > 100 mg/kg | > 1000 mg/kg | > 1000 mg/kg | – | – |
| CCn1c(=O)c2ccccc2n(-c2cccc([N+](=O)[O-])c2)c1=S [Compound 24, 1-(m-nitrophenyl)-3-ethyl-2-thio-4-oxo-1,2,3,4-tetrahydroquinazoline] | 31 to 45% | 46 to 60% | 3.4 mg/kg | 300 to 1000 mg/kg | > 1000 mg/kg | – | – |
| O=c1c2ccccc2n(-c2cccc([N+](=O)[O-])c2)c(=S)n1CC(F)(F)F [Compound 26] | – | < 15% | > 100 mg/kg | > 1000 mg/kg | > 1000 mg/kg | > 2000 mg/kg | – |
| CCn1c(=O)c2ccccc2n(-c2cccc(C(F)(F)F)c2)c1=O [R1=drawing 18, R2=C2 H5, reference compound] | < 15% | 31 to 45% | > 100 mg/kg | > 1000 mg/kg | 456 mg/kg | > 4000 mg/kg | – |
| O=c1c2ccccc2n(-c2cccc(C(F)(F)F)c2)c(=O)n1CCO [R1=drawing 18, R2=CH2 CH2 OH, reference compound] | < 15% | 31 to 45% | 35 mg/kg | 30 to 100 mg/kg | 200 mg/kg | 970 mg/kg | – |
| O=C(O)c1ccccc1Nc1cccc(C(F)(F)F)c1 [flufenamic acid, reference compound] | – | – | – | > 1000 mg/kg | – | – | – |
| Cc1ccccc1-n1c(C)nc2ccccc2c1=O [methaqualone, reference compound] | – | – | – | – | – | – | 10 to 30 mg/kg |
| CCCCC1C(=O)N(c2ccccc2)N(c2ccccc2)C1=O [phenylbutazone, reference compound] | – | – | – | 300 to 1000 mg/kg | – | – | – |
